Here are results for 2 compounds from patent US12077503B2, “Substituted cyclic amides and their use as herbicides” (FMC CORPORATION, priority 2015, dated 2024).

The structures appear in SMILES notation. Read-outs that look alike come from different tables or passages of the source.

Holding throughout (type): in vivo
Experiment [1] relates to barnyardgrass (Echinochloa crus-galli). The experiment is described as follows: Test A postemergence. Conditions: Echinochloa crus-galli, post-emergence, 240 h, 125 g ai/ha. In outline:
(§1)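 Treatment is preemergence as a directed soil spray after planting, or postemergence at the one- to two-leaf stage, with test chemical in a non-phytotoxic solvent mixture plus surfactant. Plants stay in the greenhouse about 10 d before visual injury scoring on a 0 to 100 scale versus untreated controls.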

In experiment [2] the test system is ragweed (common ragweed, Ambrosia elatior). The experiment is described as follows: Test A postemergence. Particulars: Ambrosia artemisiifolia, post-emergence, 240 h, 125 g ai/ha. In outline:
as §1

The next experiment deals with corn (Zea mays). Briefly: Test A postemergence. Conditions: Zea mays, post-emergence, 240 h, 125 g ai/ha. In outline: as §1
The test system of experiment [3] is pigweed (Amaranthus retroflexus). The experiment is described as follows: Test A postemergence. Conditions: Amaranthus retroflexus, post-emergence, 240 h, 125 g ai/ha. The method, boiled down: as §1
In experiment [4] the test system is Galium (catchweed bedstraw, Galium aparine). Briefly: Test A postemergence. Particulars: Galium, post-emergence, 240 h, 125 g ai/ha. The method, boiled down:
as §1

For experiment [5], the system named is blackgrass (Alopecurus myosuroides). Briefly: Test A postemergence. Particulars: Alopecurus myosuroides, post-emergence, 240 h, 125 g ai/ha. The method, boiled down: as §1
The subject of experiment [6] is wheat (Triticum aestivum). Briefly: Test A postemergence. Conditions: Triticum aestivum, post-emergence, 240 h, 125 g ai/ha. The method, boiled down: as §1
Experiment [7] has as its system ryegrass, Italian (Italian ryegrass, Lolium multiflorum). The experiment is described as follows: Test A postemergence. Conditions: Lolium multiflorum, post-emergence, 240 h, 125 g ai/ha. In outline: as §1
The test system of experiment [8] is giant foxtail (Setaria faberii). Briefly: Test A postemergence. Conditions: Setaria faberi, post-emergence, 240 h, 125 g ai/ha. The method, boiled down: as §1
Experiment [9] deals with barnyardgrass (Echinochloa crus-galli). Briefly: Test A preemergence. Conditions: Echinochloa crus-galli, pre-emergence, 240 h; for pest or weed control at 125 g/ha: 125 g ai/ha, 0 to 100 scale where 0 is no effect and 100 is complete control; for pest or weed control at 500 g/ha: 500 g ai/ha. In outline:
as §1

Experiment [10] concerns ragweed (common ragweed, Ambrosia elatior). Briefly: Test A preemergence. Particulars: Ambrosia artemisiifolia, pre-emergence, 240 h; for pest or weed control at 500 g/ha: 500 g ai/ha. The method, boiled down:
as §1

The subject of experiment [11] is pigweed (Amaranthus retroflexus). Briefly: Test A preemergence. Conditions: Amaranthus retroflexus, pre-emergence, 240 h; for pest or weed control at 125 g/ha: 125 g ai/ha, 0 to 100 scale where 0 is no effect and 100 is complete control; for pest or weed control at 500 g/ha: 500 g ai/ha.
For the next experiment, the system named is Kochia (Kochia scoparia). The experiment is described as follows: Test A preemergence. Particulars: Bassia scoparia, pre-emergence, 240 h; for pest or weed control at 125 g/ha: 125 g ai/ha, 0 to 100 scale where 0 is no effect and 100 is complete control; for pest or weed control at 500 g/ha: 500 g ai/ha. In outline: as §1
Experiment [12] relates to ryegrass, Italian (Italian ryegrass, Lolium multiflorum). Briefly: Test A preemergence. Conditions: Lolium multiflorum, pre-emergence, 240 h; for pest or weed control at 500 g/ha: 500 g ai/ha. In outline:
as §1

Experiment [13] deals with giant foxtail (Setaria faberii). Briefly: Test A preemergence. Particulars: Setaria faberi, pre-emergence, 240 h; for pest or weed control at 125 g/ha: 125 g ai/ha, 0 to 100 scale where 0 is no effect and 100 is complete control; for pest or weed control at 500 g/ha: 500 g ai/ha. The method, boiled down: as §1
Setting [14] is: preemergence, read-out: Barnyardgrass plant response rating.
[15] abbreviates: preemergence, read-out: Pigweed plant response rating.
Setting [16] is: preemergence, read-out: Kochia plant response rating.
Where [17] appears, read: preemergence, read-out: Foxtail, Giant plant response rating.

Regarding `CN1C[C@H](c2ccc(C(F)(F)F)cc2)[C@@H](C(=O)Nc2ccc(F)cc2C(F)(F)F)C1=O` [Compound 942], the pest or weed control at 125 g/ha in [1] (Postemergence, visual injury after approximately 10 d, 0 to 100 scale where 0 is no effect and 100 is complete control, read-out: Plant response rating, Barnyardgrass) was 60%; in [2] (Postemergence, visual injury after approximately 10 d, 0 to 100 scale where 0 is no effect and 100 is complete control, read-out: Plant response rating, Ragweed), 0%; in experiment [3] (Postemergence, visual injury after approximately 10 d, 0 to 100 scale where 0 is no effect and 100 is complete control, read-out: Plant response rating, Pigweed), 70%; in [4] (Postemergence, visual injury after approximately 10 d, 0 to 100 scale where 0 is no effect and 100 is complete control, read-out: Plant response rating, Galium) it was 50%; in experiment [5] (Postemergence, visual injury after approximately 10 d, 0 to 100 scale where 0 is no effect and 100 is complete control, read-out: Plant response rating, Blackgrass), 70%; in [7] (Postemergence, visual injury after approximately 10 d, 0 to 100 scale where 0 is no effect and 100 is complete control, read-out: Plant response rating, Ryegrass, Italian) it was 0%. The pest or weed control at 125 g/ha is 80% in experiment [8] (Postemergence, visual injury after approximately 10 d, 0 to 100 scale where 0 is no effect and 100 is complete control, read-out: Plant response rating, Foxtail, Giant); 70% in experiment [9] (setting [14]); 80% in experiment [11] (setting [15]); 70% in the experiment with Kochia (Kochia scoparia) (setting [16]); 90% in experiment [13] (setting [17]). In the experiment with corn (Zea mays) (Postemergence, visual injury after approximately 10 d, 0 to 100 scale where 0 is no effect and 100 is complete control), the Corn plant response rating (crop injury, 0 = no effect, 100 = complete kill) at 125 g/ha came to 0%. Also, the plant injury at 125 g/ha in experiment [6] (Postemergence, visual injury after approximately 10 d, 0 to 100 scale where 0 is no effect and 100 is complete control, read-out: Plant response rating, Wheat) came out at 20%. For the same compound, the pest or weed control at 500 g/ha is 90% in experiment [9] (preemergence, visual injury rating about 10 d after treatment, 0 to 100 scale (0 no effect, 100 complete control), read-out: Barnyardgrass plant response rating); 50% in experiment [10] (preemergence, visual injury rating about 10 d after treatment, 0 to 100 scale (0 no effect, 100 complete control), read-out: Ragweed plant response rating); 90% in [11] (preemergence, visual injury rating about 10 d after treatment, 0 to 100 scale (0 no effect, 100 complete control), read-out: Pigweed plant response rating); 90% in the experiment with Kochia (Kochia scoparia) (preemergence, visual injury rating about 10 d after treatment, 0 to 100 scale (0 no effect, 100 complete control), read-out: Kochia plant response rating); 20% in experiment [12] (preemergence, visual injury rating about 10 d after treatment, 0 to 100 scale (0 no effect, 100 complete control), read-out: Ryegrass, Italian plant response rating); 90% in experiment [13] (preemergence, visual injury rating about 10 d after treatment, 0 to 100 scale (0 no effect, 100 complete control), read-out: Foxtail, Giant plant response rating).

Regarding `CN1C[C@H](c2cccc(COC(F)F)c2)[C@@H](C(=O)Nc2ccccc2F)C1=O` [Compound 875], the pest or weed control at 125 g/ha is 90% in [1] (postemergence, visual injury rating after approximately 10 d, read-out: Barnyardgrass plant response rating (0 to 100 scale, 0 no effect, 100 complete control)); 20% in [2] (postemergence, visual injury rating after approximately 10 d, read-out: Ragweed plant response rating (0 to 100 scale, 0 no effect, 100 complete control)); 0% in experiment [3] (postemergence, visual injury rating after approximately 10 d, read-out: Pigweed plant response rating (0 to 100 scale, 0 no effect, 100 complete control)); 40% in experiment [4] (postemergence, visual injury rating after approximately 10 d, read-out: Galium plant response rating (0 to 100 scale, 0 no effect, 100 complete control)); 20% in experiment [5] (postemergence, visual injury rating after approximately 10 d, read-out: Blackgrass plant response rating (0 to 100 scale, 0 no effect, 100 complete control)); 20% in [7] (postemergence, visual injury rating after approximately 10 d, read-out: Ryegrass, Italian plant response rating (0 to 100 scale, 0 no effect, 100 complete control)). Moreover, the pest or weed control at 125 g/ha in [8] (postemergence, visual injury rating after approximately 10 d, read-out: Foxtail, Giant plant response rating (0 to 100 scale, 0 no effect, 100 complete control)) amounted to 90%; in experiment [9] (setting [14]), 90%; in [10] (125 g ai/ha, preemergence, 0 to 100 scale where 0 is no effect and 100 is complete control, read-out: Ragweed plant response rating), 0%; in experiment [11] (setting [15]) it was 0%; in the experiment on Kochia (Kochia scoparia) (setting [16]), 50%; in [12] (125 g ai/ha, preemergence, 0 to 100 scale where 0 is no effect and 100 is complete control, read-out: Ryegrass, Italian plant response rating) it was 0%. In experiment [13] (setting [17]), the pest or weed control at 125 g/ha is 90%. Moreover, the plant injury at 125 g/ha is 20% with corn (Zea mays) (postemergence, visual injury rating after approximately 10 d, read-out: Corn plant response rating (0 to 100 scale, 0 no effect, 100 complete control)) and 0% in [6] (postemergence, visual injury rating after approximately 10 d, read-out: Wheat plant response rating (0 to 100 scale, 0 no effect, 100 complete control)). Besides, the pest or weed control at 500 g/ha in [9] (Preemergence, visual injury vs untreated controls after approximately 10 d, read-out: Barnyardgrass plant response rating (0 to 100 scale where 0 is no effect and 100 is complete control)) was determined as 90%; in experiment [10] (Preemergence, visual injury vs untreated controls after approximately 10 d, read-out: Ragweed plant response rating (0 to 100 scale where 0 is no effect and 100 is complete control)), 50%; in experiment [11] (Preemergence, visual injury vs untreated controls after approximately 10 d, read-out: Pigweed plant response rating (0 to 100 scale where 0 is no effect and 100 is complete control)) it was 0%; with Kochia (Kochia scoparia) (Preemergence, visual injury vs untreated controls after approximately 10 d, read-out: Kochia plant response rating (0 to 100 scale where 0 is no effect and 100 is complete control)), 80%; in experiment [12] (Preemergence, visual injury vs untreated controls after approximately 10 d, read-out: Ryegrass, Italian plant response rating (0 to 100 scale where 0 is no effect and 100 is complete control)), 30%; in experiment [13] (Preemergence, visual injury vs untreated controls after approximately 10 d, read-out: Foxtail, Giant plant response rating (0 to 100 scale where 0 is no effect and 100 is complete control)), 90%.
